# Data taken from paper PMC12298351, “Novel 3,19-(N-Phenyl-3-(4-fluorophenyl)-pyrazole) Acetal of Andrographolide Promotes Cell Cycle Arrest and Apoptosis in MDA-MB-231 Breast Cancer Cells” (Pharmaceuticals, 2025).
# Key:
# MDA-MB-468 = details: MDA-MB-468, Breast
# [1] = DPPH radical scavenging assay; details: 25 µM test compound, 0.1 mM DPPH, acetonitrile, 30 min
# Outline: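 Compounds at 25 µM in acetonitrile mixed 1:2 with 0.1 mM DPPH in acetonitrile, kept 30 min in the dark at room temperature. Absorbance read at 517 nm; % scavenging = (Ac − As)/Ac × 100, Ac being DPPH blank. Ascorbic acid positive control.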
# CAKI-1 = details: CAKI-1, Renal
# RXF 393 = details: RXF 393, Renal
# HCT-15 = details: HCT-15, Colon
# DU-145 = details: DU-145, Prostate
# SK-MEL-28 = details: SK-MEL-28, Melanoma
# MCF7 = details: MCF7, Breast
# 786-0 = details: 786-0, Renal
# SK-MEL-5 = details: SK-MEL-5, Melanoma
# HCT-116 = type: cell-based; details: HCT-116, Colon
# OVCAR-5 = details: OVCAR-5, Ovarian
# HCC-2998 = details: HCC-2998, Colon
# SF-295 = details: SF-295, CNS
# SF-268 = details: SF-268, CNS
# SK-OV-3 = details: SK-OV-3, Ovarian
# OVCAR-3 = details: OVCAR-3, Ovarian
# MOLT-4 = details: MOLT-4, Leukemia
# RPMI-8226 = details: RPMI-8226, Leukemia
# MDA-MB-435 = details: MDA-MB-435, Melanoma
# KM12 = details: KM12, Colon
# SF-539 = details: SF-539, CNS
# [2] = read-out: 50% lethal concentration (LC50)
structure (smiles),measurement,setting,value
C=C1CCC2C3(C)COC(c4cn(-c5ccccc5)nc4-c4ccc(C)cc4)OC3CCC2(C)C1CC=C1C(=O)OCC1O (stereo not drawn) [1i],GI50,MDA-MB-468,1850 nM
same,Total growth inhibition (TGI),MDA-MB-468,3.45 µM
same,CC50,MDA-MB-468; [2],6.43 µM
same,GI50,ACHN; Renal,1830 nM
same,Total growth inhibition (TGI),ACHN; Renal,3.5 µM
same,CC50,"ACHN; read-out: 50% lethal concentration (LC50), Renal",6.67 µM
same,% DPPH radical scavenging activity,[1],56.31%
same,GI50,CAKI-1,1710 nM
same,Total growth inhibition (TGI),CAKI-1,3.37 µM
same,CC50,CAKI-1; [2],6.64 µM
same,GI50,RXF 393,1490 nM
same,Total growth inhibition (TGI),RXF 393,2.97 µM
same,CC50,RXF 393; [2],5.92 µM
same,GI50,HCT-15,1590 nM
same,Total growth inhibition (TGI),HCT-15,3.19 µM
same,CC50,HCT-15; [2],6.38 µM
same,GI50,DU-145,2050 nM
same,Total growth inhibition (TGI),DU-145,4.19 µM
same,CC50,DU-145; [2],8.55 µM
same,GI50,SK-MEL-28,1740 nM
same,Total growth inhibition (TGI),SK-MEL-28,3.33 µM
same,CC50,SK-MEL-28; [2],6.39 µM
same,GI50,MCF7,1570 nM
same,Total growth inhibition (TGI),MCF7,4.6 µM
same,CC50,MCF7; [2],5.4 µM
same,Total growth inhibition (TGI),"NCI-H226; NCI-H226, Non-Small Cell Lung",2.95 µM
same,GI50,"NCI-H226; NCI-H226, Non-Small-Cell Lung",1470 nM
same,CC50,"NCI-H226; read-out: 50% lethal concentration (LC50), NCI-H226, Non-Small Cell Lung",5.92 µM
same,GI50,786-0,1770 nM
same,Total growth inhibition (TGI),786-0,3.69 µM
same,GI50,SK-MEL-5,1590 nM
same,Total growth inhibition (TGI),SK-MEL-5,2.96 µM
same,CC50,SK-MEL-5; [2],5.49 µM
same,GI50,HCT-116,3.91 µM
same,Total growth inhibition (TGI),HCT-116,1.52 µM
same,GI50,OVCAR-5,1930 nM
same,Total growth inhibition (TGI),OVCAR-5,4.59 µM
same,CC50,OVCAR-5; [2],40.5 µM
same,GI50,HCC-2998,1630 nM
same,Total growth inhibition (TGI),HCC-2998,3.06 µM
same,Total growth inhibition (TGI),"NCI-H460; NCI-H460, Non-Small Cell Lung",3.56 µM
same,GI50,"NCI-H460; NCI-H460, Non-Small-Cell Lung",1830 nM
same,CC50,"NCI-H460; read-out: 50% lethal concentration (LC50), NCI-H460, Non-Small Cell Lung",6.91 µM
same,GI50,"MDA-MB-231; MDA-MB-231, Breast",1700 nM
same,Total growth inhibition (TGI),"MDA-MB-231; MDA-MB-231/ATCC, Breast",3.28 µM
same,CC50,"MDA-MB-231; read-out: 50% lethal concentration (LC50), MDA-MB-231/ATCC, Breast",6.33 µM
same,GI50,SF-295,1580 nM
same,Total growth inhibition (TGI),SF-295,2.96 µM
same,CC50,SF-295; [2],5.54 µM
same,GI50,SF-268,2610 nM
same,Total growth inhibition (TGI),SF-268,7.58 µM
same,CC50,SF-268; [2],55.4 µM
same,GI50,SK-OV-3,3.47 µM
same,Total growth inhibition (TGI),SK-OV-3,12.1 µM
same,CC50,SK-OV-3; [2],> 100 µM
same,GI50,OVCAR-3,1950 nM
same,Total growth inhibition (TGI),OVCAR-3,3.82 µM
same,CC50,OVCAR-3; [2],7.49 µM
same,GI50,MOLT-4,2110 nM
same,Total growth inhibition (TGI),MOLT-4,> 100 µM
same,CC50,MOLT-4; [2],> 100 µM
same,GI50,RPMI-8226,8.6 µM
same,Total growth inhibition (TGI),RPMI-8226,> 100 µM
same,CC50,RPMI-8226; [2],> 100 µM
same,GI50,MDA-MB-435,1610 nM
same,Total growth inhibition (TGI),MDA-MB-435,3.31 µM
same,CC50,MDA-MB-435; [2],6.79 µM
same,GI50,KM12,3.01 µM
same,Total growth inhibition (TGI),KM12,7.93 µM
same,GI50,SF-539,1790 nM
same,Total growth inhibition (TGI),SF-539,3.19 µM
same,CC50,SF-539; [2],5.7 µM
same,Total growth inhibition (TGI),EKVX; Non-Small Cell Lung,4.96 µM
same,GI50,EKVX; Non-Small-Cell Lung,2130 nM
same,CC50,"EKVX; read-out: 50% lethal concentration (LC50), Non-Small Cell Lung",> 100 µM
